Assay results from PMC9721052, “AHL-Priming Protein 1 mediates N-3-oxo-tetradecanoyl-homoserine lactone priming in Arabidopsis” (BMC Biology, 2022).

Biological target: T1, ALI1 (AHL-Priming Protein 1; AtGlcAK2, formerly AtGALK2) (Arabidopsis thaliana, UniProt Q9LY82)
T1 construct: gene GLCAK2; full ORF amplified from Col-0 cDNA, pDEST17, N-terminal 6xHis kept, expressed in E. coli BL21, Ni-NTA purified; GST-ALI1 also made for the biosensor assay
T1 sequence (Q9LY82 1-366): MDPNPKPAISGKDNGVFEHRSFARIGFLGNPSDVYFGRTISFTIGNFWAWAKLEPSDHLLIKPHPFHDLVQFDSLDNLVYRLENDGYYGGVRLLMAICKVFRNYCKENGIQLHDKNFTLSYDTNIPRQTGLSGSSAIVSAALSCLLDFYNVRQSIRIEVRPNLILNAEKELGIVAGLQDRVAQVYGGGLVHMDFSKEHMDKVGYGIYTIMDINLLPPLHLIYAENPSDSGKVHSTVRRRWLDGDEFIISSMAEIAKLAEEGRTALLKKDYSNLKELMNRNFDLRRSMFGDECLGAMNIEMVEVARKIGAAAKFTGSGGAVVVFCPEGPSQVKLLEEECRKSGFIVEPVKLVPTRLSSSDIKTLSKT
Assay: sequestration of free ligand read by biosensor E. coli LuxCDABE luminescence
Format: binding
Conditions: 6 nmol protein, 0-18 nmol ligand, overnight; indirect assay, MST and nanoDSF by the same authors did not confirm

SMILES: CCCCCCCCCCCC(=O)CC(=O)N[C@H]1CCOC1=O [oxo-C14-HSL]
- sequestration of free ligand read by biosensor E. coli LuxCDABE luminescence: equivalently able to sequestrate oxo-C14-HSL molecule from the solution
